Reference: doi:10.1101/657387v2 (biorxiv, 2019)
Each block holds one compound with its values, some of them ahead of it.

Assays:
Experiment in all cases: whole-cell patch clamp, HEK-293T
Type in all cases: cell-based
TASK-3 (hTASK-3) [1] = molecular target: T1, TASK-3 (hTASK-3) (Homo sapiens, UniProt Q9NPC2)
[2] = molecular target: T2, TASK-3/TASK-1 (hTASK-3/hTASK-1) (Homo sapiens, UniProt O14649+Q9NPC2)
TASK-3 (hTASK-3) [3] = molecular target: T1, TASK-3 (hTASK-3); conditions: read-out: % inhibition at 0.5 μM
[4] = molecular target: T2, TASK-3/TASK-1 (hTASK-3/hTASK-1); conditions: read-out: % inhibition at 0.5 μM
TASK-3 (hTASK-3) [5] = molecular target: T1, TASK-3 (hTASK-3); conditions: dose-response

T1 sequence (Q9NPC2 whole entry): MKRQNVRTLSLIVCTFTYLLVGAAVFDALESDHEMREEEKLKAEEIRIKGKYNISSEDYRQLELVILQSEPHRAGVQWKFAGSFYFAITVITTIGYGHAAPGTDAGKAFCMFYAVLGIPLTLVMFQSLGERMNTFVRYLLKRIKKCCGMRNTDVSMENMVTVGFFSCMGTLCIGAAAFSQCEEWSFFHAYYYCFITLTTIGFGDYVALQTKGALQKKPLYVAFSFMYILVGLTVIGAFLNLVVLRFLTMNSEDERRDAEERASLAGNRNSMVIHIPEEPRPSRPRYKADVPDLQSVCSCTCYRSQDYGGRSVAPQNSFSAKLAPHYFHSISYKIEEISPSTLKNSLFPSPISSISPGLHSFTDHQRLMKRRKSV
T2 sequence (Q9NPC2 whole entry): as above
T2 sequence (O14649 whole entry): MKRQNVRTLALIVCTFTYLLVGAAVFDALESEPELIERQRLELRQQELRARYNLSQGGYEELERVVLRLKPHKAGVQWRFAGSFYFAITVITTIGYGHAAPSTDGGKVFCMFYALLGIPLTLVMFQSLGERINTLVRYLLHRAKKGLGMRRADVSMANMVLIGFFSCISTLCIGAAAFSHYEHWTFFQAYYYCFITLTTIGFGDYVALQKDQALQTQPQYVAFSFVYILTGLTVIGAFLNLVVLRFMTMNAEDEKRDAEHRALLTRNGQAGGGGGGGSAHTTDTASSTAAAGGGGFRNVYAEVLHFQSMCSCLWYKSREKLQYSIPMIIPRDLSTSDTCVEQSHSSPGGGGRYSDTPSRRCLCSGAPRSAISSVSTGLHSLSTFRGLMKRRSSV

- EC50 (TASK-3 (hTASK-3) [1]): 1400 ± 200 nM
- EC50 [2]: 2500 ± 200 nM
SMILES: Cc1ccc(SCc2cc(O)nc(N=C(N)Nc3ccc4c(c3)OCCO4)n2)cc1 [CHET3]

- EC50 (TASK-3 (hTASK-3) [1]): 500 ± 100 nM
SMILES: Cc1ccc(SCc2cc(O)nc(N=C(N)Nc3cccc4ccccc34)n2)cc1 [CHET3-1]

- inhibition at 0.5 µM (TASK-3 (hTASK-3) [3]): 86 ± 3%
- inhibition at 0.5 µM [4]: 90 ± 2%
SMILES: CCCC(=O)C1CCN(c2ncnc3c2CN(C(=O)c2ccc(-c4ccccc4)cc2)CC3)CC1 [PK-THPP]

- whole-cell patch clamp, HEK-293T (TASK-3 (hTASK-3) [5]): while CHET3-2 was inactive (Fig. 4B)
SMILES: Cc1ccc(SCc2cc(O)nc(N=C(N)Nc3ccc(C(C)(C)C)cc3)n2)cc1 [CHET3-2]
